Holding throughout (type): cell-based
The test system of assay [1] is A549 cells. Briefly: QRT-PCR assay for stem cell transcription factors. Particulars: 72 hours. The procedure: (§1) Given the effects of HDAC11 inhibition on stem-like side population cells, the effects on the expression of stem cell transcription factors was determined using QRT-PCR. A549 or H1650 cells were plated in 60 mm cell culture dishes (120,000 cells). The next day, HDAC11 inhibitors were added at various concentrations and incubated for 72 hours. For the siRNA experiments, A549 cells were plated in 60 mm cell culture dishes (120,000 cells per dish). The siRNAs (Santa Cruz Biotechnologies sc-106896 or ThermoFisher Scientific Cat#4392420) were transfected at a concentration of 100 and 150 pmoles into cells using Oligofectamine reagent (Invitrogen) as per manufacturer's protocol. A non-targeting siRNA (Ambion AM4635) was used as a control for all the transfection experiments. The cells were harvested after 72 hours post transfection. At the end of the treatments, cells were scraped, lysed and total RNA was isolated by RNeasy miniprep kit from Qiagen following the manufacturer's protocol (RNeasy mini kit Cat No. 74104). 1 μg of RNA was converted into cDNA using iScript cDNA synthesis kit (BioRad) in a 20 μl total reaction volume. Levels of mRNA were further analyzed using quantitative real time-PCR (qRT-PCR) that was performed in CFX96 Real time system using BioRad iQ SYBR Green supermix. The reaction was set with 5 μl of SYBR Green, 1 μl of 1 μM Forward primer, 1 μl of 1 μM Reverse primer, 0.5 μl of cDNA and 4.5 μl of water in a total 12 μl reaction. Data was normalized using GAPDH as an internal control and fold change was calculated by 2^−Delta-DeltaCt method. First the Delta-Ct was calculated (Delta-Ct=Ct Gene−Ct GAPDH). Next Delta-Delta-Ct was calculated (Delta-Delta-Ct=Delta-Ct treatment−Delta-Ct control). Finally fold change was calculated by 2^−Delta-DeltaCt.

The test system of the next assay is H1650 cells. Briefly: QRT-PCR assay for stem cell transcription factors. Particulars: 72 hours. The procedure: as §1
The subject of assay [2] is A549 side population (SP) stem-like cells. Kind of assay: Sphere formation assay with stem-like side population NSCLC cells. The note with it: A549 (KRAS mutation), 0.5-5.0 μM, Day 10. The procedure: (§2) In order to investigate the role of HDAC11 in the self-renewal of stem-like cancer cells, sphere formation assays were conducted with NSCLC side population (SP) stem-like cells. A549 and NCI-H1650 cells were obtained from the ATCC. Asynchronously growing A549 or NCI-H1650 cells were washed once with phosphate buffered saline (PBS) and harvested using Accutase solution (Sigma Aldrich) and resuspended in DMEM-F12K medium (Gibo, Life Technologies) with 2% fetal bovine serum (FBS) at 1×10^6 cells/ml density. The cells were incubated with 4 μg/ml of Hoechst 33342 dye (Life Technologies) for 90 min at 37° C. in the presence or absence of 1 μM Fumitremorgin C (Sigma-Aldrich) which was used as a control sample to set the gate during sorting. The Hoechst stained cells were sorted using the BD FACSAria cell sorter. The sorted SP cells were plated in 96-well ultra-low adherent plate (Corning Inc) at the cell density of 1000 cells/100 μl/well in stem cell selective medium (DMEM:F12K supplemented with N2 supplement, 10 ng/mL epidermal growth factor (EGF) and 10 ng/ml basic fibroblast growth factor (bFGF) (Sigma-Aldrich) at 37° C. for 7-10 days. The spheres were observed and acquired using EVOS FL microscope system (Life Technologies Inc., USA). The numbers of spheres greater than or equal to 50 μm were counted. To study the effect of the HDAC11 inhibitors, the appropriate concentrations of the compounds were added to the wells on Day 0 and Day 5 and the image acquisition and analysis of the spheres were performed on Day 10. The sphere formation assays were performed twice with triplicates of each treatment in every assay.

The test system of assay [3] is NCI-H1650 side population (SP) stem-like cells. Described as above. Particulars: H1650 (EGFR mutation), 0.5-5.0 μM, Day 10. The procedure:
as §2

For another assay, the system named is NCI-H2170 cells. Kind of assay: Cell proliferation assay with combination treatment (MTT). Particulars: H2170, combination with GDC-0449 (Vismodegib) or BMS-833923, 96 hours. The procedure:
(§3) Selective HDAC11 inhibitors may be useful in combination with other targeted agents, including Jak2 inhibitors and Smoothened inhibitors. The effect of combination with the Smoothened inhibitors GDC-0449 (Vismodegib) and BMS-833923 was tested in lung cancer cell lines. A549 and NCI-H2170 cells were obtained from the ATCC. H2170 is a squamous carcinoma cell line. Cell viability was assessed using MTT reagent (Thiazolyl Blue Tetrazolium Bromide) (Sigma-Aldrich). The cells were grown in 96-well plates at a density of 3000-5000 cells/well in triplicates. The HDAC11 inhibitors were added to the adherent cells at different concentrations and treatment was carried out for 96 hours. After treatments, the cells were incubated with the 1 mg/mL MTT reagent at 37° C. for 1 hour. The reaction was terminated with DMSO that solubilizes the formazan product formed. Absorbance at 590 nm was recorded in a plate reader.

Assay [4] deals with A549 cells. The assay is described as above. Particulars: A549, combination with GDC-0449 (Vismodegib) or BMS-833923, 96 hours. The procedure: as §3
Assay [5] deals with H1650 cells co-cultured with primary CAFs from human lung cancer. Briefly: Co-culture assay with cancer cells and cancer associated fibroblasts. The procedure:
The effects of selective HDAC11 inhibition on cancer cells and cancer associated fibroblasts (CAFs) were determined in a co-culture assay. The cells were first trypsinized and collected in serum containing medium and were further incubated in same media at 37° C. for 15-20 min for recovery. The cells were resuspended in serum free media at 1×10^6 cells/ml density and stained with 10 uM of cytotracker green (Cancer associated fibroblasts) or cytotracker red dye (H1650 cells) (Life Technologies Inc) at 37° C. for 90 min. The stained cells were washed twice with serum free medium to remove excess dye at 1500 rpm for 5 min. The cytotracker green stained CAFs were mixed with cytotracker red stained H1650 cells in 1:1 ratio and grown in 96-well tissue culture plate overnight. The HDAC11 inhibitors were then added to the mixed adhered cells (CAFs+H1650) at appropriate concentrations. The images were taken on Day 0 and after every 24 hours using EVOS FL microscope system and EVOS software (Life Technologies Inc).

Consider two molecules from patent US10538496B2, “Methods using HDAC11 inhibitors” (FORMA Therapeutics, Inc., priority 2016, dated 2020).

In the case of `O=C(NO)c1cccc2c1C[C@]1(CCN(Cc3ccc(Cl)c(C(F)(F)F)c3)C1=O)C2` [HDTK054, (S)-1′-(4-chloro-3-(trifluoromethyl)benzyl)-N-hydroxy-2′-oxo-1,3-dihydrospiro[indene-2,3′-pyrrolidine]-4-carboxamide], the “expression of Gli1 (mRNA)” value in the assay on A549 cells [1] and in the assay with H1650 cells was “decreased expression” in each case. Also, the “expression of Sox2 (mRNA)” value in the assay on A549 cells [1] and with H1650 cells was “decreased expression” in each case. Moreover, the “expression of Yap1 (mRNA)” value with A549 cells [1] and with H1650 cells was “decreased expression” each time. Also, the “growth of stem-like cancer cells (sphere formation)” value in assay [2] and in assay [3] was “prevented growth” throughout. Besides, the “cell viability, combination with Smoothened inhibitors” value with NCI-H2170 cells and in the assay on A549 cells [4] was “decreased cell viability” throughout. Further, in assay [5] (1:1 co-culture), the “growth of H1650 cells co-cultured with primary CAFs” value is reported as “inhibit the growth”. In addition, the “effects on CAFs” value in assay [5] (1:1 co-culture with H1650 cells) was “minimal effects”.
Turning to `O=C(NO)c1cccc(Nc2nc3cc(Cl)c(Cl)cc3o2)c1` [HDTK010, 3-((5,6-dichlorobenzo[d]oxazol-2-yl)amino)-N-hydroxybenzamide], the “expression of Gli1 (mRNA)” value with A549 cells [1] and in the assay on H1650 cells was “decreased expression” in each case. For the same molecule, the “expression of Sox2 (mRNA)” value in the assay on A549 cells [1] and with H1650 cells was “decreased expression” in each case. The “expression of Yap1 (mRNA)” value in the assay with A549 cells [1] and in the assay with H1650 cells was “decreased expression” each time. Moreover, the “growth of stem-like cancer cells (sphere formation)” value in assay [2] and in assay [3] was “prevented growth” each time. Besides, the “cell viability, combination with Smoothened inhibitors” value in the assay with NCI-H2170 cells and in the assay with A549 cells [4] was “decreased cell viability” in each case.
